Consider one compound from patent US20230346884A1, “Molecular Targets for Modulation of Dissociative and Associative States” (The Board of Trustees of the Leland Stanford Junior …, priority 2020, published 2023).

In one test the test system is deep RSP neurons. In words: 32-channel two-shank silicon probe recording in deep RSP. The class given is in vivo, mouse. The settings on record: 50 mg/kg ketamine. How it is done:
Mice were anesthetized with isoflurane, a small craniotomy (˜2 mm diameter) was performed above retrosplenial cortex, and a custom head-plate implanted. The dura was gently removed, and then covered with Kwik-Cast Sealant (World Precision Instruments). A skull screw was implanted and secured with cement in the right frontal skull bone. Mice were given 1-2 hours to recover. […] The deepest tip of the electrode was 800-1000 μm from the brain surface for all recordings.
Extracellular electrophysiological data were recorded using 32 channel acute silicon probes (ASSY-37 P-1, Cambridge Neurotech) acquired at 30 kHz. Following common average referencing, well-isolated single units were identified using KiloSort and Phy. Data were analyzed using custom Matlab scripts. Instantaneous firing rate was computed using 1 ms bins. We used a Hidden Markov Model with two states to label ON and OFF states. ON states were considered to represent bursts, and OFF states were inter-burst intervals. We fit the emission and transition parameters of the model using the Baum-Welch algorithm (Matlab hmmtrain with a convergence threshold of 1 e-6 and initial guesses of transition matrix: [0.95, 0.05; 0.05, 0.95] and emission: [0.5, 0.5; […]]), and then estimated the state assignment at each time point using the Viterbi algorithm (Matlab hmmviterbi). Various initial guesses were tested, and they yielded the same or similar model fit. For population analyses, a bin size of 2 was used. In FIG. 10, we are looking at the number of spikes in each burst, which can vary depending on the neuron being recorded, so we included every burst for every neuron. To quantify the consistency of the sequential onset of activation across bursts, we ranked each unit by its onset time for each burst. We then ordered the units according to their median rank across bursts. For each burst, we fit a linear model between the ranking in that burst and the median rank. The distribution of correlation coefficients was then plotted across bursts for each mouse and treatment condition.

For test [1], the system named is retrosplenial cortex (RSP). In words: Fiber photometry in RSP (GCaMP6m). The format is in vivo, mouse. The text has this: A 405 nm and 470 nm LED illumination (Thorlabs) was combined (425 nm longpass, Thorlabs DMLP425) and coupled into a fiber optic patch cord (400 μm diameter, 0.48 NA, Doric Lenses) using a longpass dichroic (505 nm, Thorlabs DMLP505) and a fixed-focused coupler/collimator with a standard FC connector (F240FC-A, NA 0.51, f =7.9 mm)^47,48. Each illumination channel was frequency modulated using the sync output from a lock-in amplifier (SR810 DSP, Stanford Research Systems). GCaMP fluorescence was collected through the same patchcord and delivered through a bandpass emission filter (Semrock, FF01-520/35) onto a NewFocus 2151 femtowatt silicon photoreceiver (Newport, DC Low mode). The signal from the photoreceiver was split into each lock-in amplifier, and the filtered outputs were digitized at 5 kHz using a NIDAQ (National Instruments PCIe-6353) and saved using a MATLAB (MathWorks) acquisition script.
Analysis was performed using custom MATLAB (MathWorks) scripts. Widefield imaging videos were registered to a 2D top-projection atlas generated from the annotated Allen Brain Atlas volume, version CCFv2, in MATLAB (MathWorks), using an affine transformation computed from four manually selected control points. Each video was DF/F normalized, using the median for each pixel over the entire time series as F. The 410 nm channel was then temporally smoothed using a moving average (width=400 ms). The smoothed 410 nm DF/F signal for each pixel was regressed onto the 488 nm DF/F signal for the corresponding pixel, and the regression coefficients were used to scale the 410 nm channel to the 488 nm channel. This scaled 410 nm DF/F signal was then subtracted from the 488 nm DF/F signal to produce a normalized signal for each pixel. For quantification, activity traces were extracted from points centered in five cortical regions (visual, somatosensory, parietal, motor, retrosplenial) on the left hemisphere of the brain. The video data was Gaussian smoothed spatially (radius=2 pixels). Similarly, for fiber photometry recordings, the 410 nm signal was regressed onto the 488 nm signal, the 410 nm signal was scaled by the regression coefficients, and then subtracted from the 488 nm signal.
Each trace (corresponding to either a fiber photometry signal, a cellular two-photon signal, a widefield regional centroid, a widefield pixel, an sEEG trace, or a smoothed spike rate Neuropixels trace) was z-scored, and the power spectral density (PSD) was then estimated using Welch's method (pwelch( ) in Matlab), with a window size of 10*fs (15*fs for human sEEG) where fs is the sampling rate of the signal. The average band power within a specified band (i.e. 1-3 Hz) was then computed by integrating the PSD estimate (bandpower in Matlab). For displaying the traces of individual cells, traces were each zscored by subtracting the mean value of the trace (across the whole recorded time window) and dividing by the standard deviation of the trace. Unless otherwise indicated, the PSD was computed across the time window from minutes 10 to 11 post-injection.
Stereotaxic Surgery: Adult male and female HCN1^f/f, NR1^f/f, or wildtype C57/B16 were injected bilaterally in two retrosplenial locations (AP −3.1 and −3.4, ML+/−0.5, DV −0.5) with 1 uL of AAV8-Ef1a-mCherry-IRES-Cre (titer 5E11) and AAVdj-Ef1a-DIO-GCaMP6m (titer 1E13). A 400-micron optical fiber was implanted over one injection location. At least four weeks were allowed for viral expression and gene disruption before photometry recording. For gene knockout behavior experiments, injections of AAVdj-Ef1a-Cre were made at (AP −2.7, −3.1 and −3.5, ML+/−0.5, DV −1.35 and −0.70). For gene knockout control behavioral experiments, two retrosplenial injections of AAVdj-Efla-Cre were made in experimental animals.

The subject of test [2] is mice. Nature of the test: Tail suspension test. The class given is in vivo, mouse. How it is done:
Tail Suspension Test: Mouse activity was recorded using a 60 Hz web camera. Struggling activity was quantified for minutes 2-10. […] Illumination began 30 seconds before tails were secured with tape and suspended from the beam. Mice were excluded if they climbed on their own tails.

Test [3] relates to mice. In words: Resident-intruder social interaction assay. The format is in vivo, mouse. On the procedure: Social Interaction Assay: Resident-intruder social interaction was recorded for two minutes. Interactions were defined as close physical proximity behaviors, including sniffing, touching, and following. […] Illumination began 30 seconds before the same-sex intruder mouse was introduced.

Test [4] concerns neurons throughout the brain. In words: Simultaneous recording from four Neuropixels probes with i.p. drug delivery.
Method: Mice were anesthetized with isoflurane, carefully leveled in a stereotaxic apparatus and their scalp and periosteum were removed. A 3% hydrogen peroxide in saline solution was used to clean the surface of the skull. A custom stainless steel headbar was leveled on the skull and attached using clear dental cement. After the cement had dried, targeted probe entry sites were stereotaxically marked on the cement layer with a permanent marker (Day 1: “mPFC”, 2.3AP, 0.6 ML; “somatosensory”, −0.7AP, −4.0 ML; “retrosplenial”, −2AP, −1 ML; “subiculum”, −3.5AP, 2.14 ML; Day 2: “OFC”: 2.5AP, 1.5 ML; “mPFC”: 2.3AP, −0.6 ML; “retrosplenial”, −2AP, 1 ML; “thalamus”, −1.5AP, −1.7 ML). […] A 2 mm long insulated platinum-iridium wire was implanted centrally over the cerebellum, with the last several hundred microns bared to serve as an electrical reference.
Mice were acclimated to head fixation and the recording rig over several days before recording. Several hours before recording, mice were anesthetized for approximately 30 minutes each while small 1 mm craniotomies were made over four pre-marked areas. Craniotomies were kept clean of bone fragments and made such that bleeding was minimized. The skull was covered with a pool of saline and with Quik-Cast to protect and keep moist craniotomies before recording. Mice recovered in their homecages before recording. Immediately prior to recording set up, mice were very briefly anesthetized with isoflurane and implanted with an IV catheter system (BD Saf-T-Intima Closed IV Catheter System: 22G ×¾″, containing an integrated Y adaptor and safety lock) to their intraperitoneal cavity and affixed with glue. […] While still anesthetized, mice were headfixed and tubing was secured stably to a custom mouse holder by tape. Quik-Cast was removed from the skull, and craniotomies were briefly cleaned before being submerged in a pool of saline. Four Neuropixels 1.0 probes^43,44, were grounded together with the mouse reference electrode, coated with red fixable dye (CM-Dil, ThermoFisher), positioned over each craniotomy, and carefully inserted at approximately 15 degrees from the vertical axis to depths of 4-5 mm at a rate of approximately 3 um/s. Following the completion of all insertions, the probes were allowed to rest for at least 10 minutes before the recording began. 30 kHz data was acquired from the four probes simultaneously using the Neuropixels control system (as described in the User Manual) and SpikeGLX software (billkarsh.github.io/SpikeGLX/). The four acquisitions were synchronized using a common squarewave signal recorded for all probes and aligned to the nearest pulse edge. Following the beginning of recording, a 20-minute baseline period of activity was collected. […]
Where [5] appears, read: both channel-knockouts (HCN1, GRIN1), ketamine.

“Also recorded” adds a separate entry of the source.

On to `CNC1(c2ccccc2Cl)CCCCC1=O` (centres unmarked) [ketamine], for which, in the test with deep RSP neurons, the “Duration of silent states between bursts” value is given as approximately 250 ms, the “Duration of synchronous bursts of deep RSP neurons” value was approximately 250 ms, the “Participation of units in burst events” value is given as “nearly all identified units participated in every burst event” and the “Spikes per burst of individual units” value is 5-10 spikes/burst. The “Glass's A, power 25 mg/kg vs 13 mg/kg (FIG. 3C)” value in test [1] (10 min after injection) is 3.2. Moreover, the “Hedge's g effect-size, oscillation-power GRIN1-pre/GRIN1-post (FIG. 4E)” value in test [1] (GRIN1 knockout, ketamine) came to 2.03. Besides, the “Hedge's g effect-size, oscillation-power HCN1-pre/HCN1-post (FIG. 4E)” value in test [1] (HCN1 knockout, ketamine) was determined as 1.02. Also, the “1-3 Hz RSP oscillation” value in test [1] (ketamine 25 mg/kg, widefield imaging and fiber photometry) is “revealed a 1-3 Hz oscillation at 25 mg/kg”. Moreover, the Ketamine-induced oscillations result in test [1] (local RSP GRIN1 (NMDAR) knockout mice, four weeks after virus) is “significantly diminished; also recorded: partially attenuated”. The Ketamine-induced oscillations result in test [1] (local RSP HCN1 knockout mice, four weeks after virus) is on record as “significantly diminished”. Also, the Ketamine-induced oscillations entry in test [1] (wild-type mice) is given as “preserved in wild-type”. The “Hedge's g effect-size, oscillation-power WT-pre/WT-post (FIG. 4E)” value in test [1] (wild-type, ketamine) came out at 3.22. For the same compound, the “Tail suspension-escape behavior vs. wild-type” value in the test on mice [2] (setting [5]) is reported as “modestly-recovered tail suspension-escape behavior”. Besides, in the test on mice [2] (ketamine >=25 mg/kg), the Tail-suspension escape responses entry is listed as “suppressed tail-suspension escape responses”. Also, the “Resident-intruder social interactions vs. wild-type” value with mice [3] (setting [5]) is reported as “modestly-recovered”. In addition, the Resident-intruder interactions entry in the test on mice [3] (ketamine >=25 mg/kg) is “suppressed”. In test [4] (8-12 min after ketamine injection (50 mg/kg i.p.)), the “Correlations of brain regions with RSP” value is on record as “correlations with RSP were reduced”. For the same compound, in test [4] (subanesthetic ketamine), the “Coupling of anteromedial thalamic neurons with RSP” value is “oscillate out-of-phase with RSP”; the “Coupling of laterodorsal and anteroventral thalamus” value is “became more-strongly correlated to each other and RSP”; the “Rhythmicity of subcortical regions” value is recorded as “specific subcortical regions (inaccessible to cortical imaging) exhibiting increased rhythmicity”.
